Patent US8828987B2, “Pyridine amide derivatives as EP4 receptor antagonists” (Rottapharm Biotech S.R.L., priority 2010, dated 2014)
Where two headings read alike, the source gives them in different places.

Experiments:
human EP4 receptor [1] = target: T1, human EP4 receptor (Homo sapiens, UniProt P35408); assay: cAMP assay (AlphaScreen) on human EP4 membrane of transfected cells, antagonism of PGE2; type: biochemical; settings: HEK293 hEP4 cell membrane stimulated with PGE2 3 nM; read-out: functional IC50
T1 construct: expressed in transfected cells; membrane fraction used
Summary of the method: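 Membranes of HEK293 cells stably expressing human EP4 (1 μg/well) in HBSS/IBMX 0.5 mM/GTP/GDP/ATP buffer, pH 7.4, preincubated 30 min at 22-23 °C with compound plus PGE2 3 nM. cAMP quantified by AlphaScreen competition with biotinylated cAMP after 1 h. IC50 from cAMP standard curve by linear regression.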

human EP4 receptor [2] = target: T1, human EP4 receptor; assay: [3H]-Prostaglandin E2 membrane binding assay (human EP4/HEK293 transfectant membranes); settings: [3H]-PGE2 1 nM, hEP4/HEK293 membranes; Ki by Cheng-Prusoff; read-out: Binding pKi (converted)
Summary of the method: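 HEK293 membranes stably expressing human EP4 (10 µg protein) incubated with 1 nM [3H]-PGE2 in 10 mM MES-KOH pH 6, 10 mM MgCl2, 1 mM CaCl2, 90 min at room temperature; nonspecific binding with 1 µM PGE2. Filtration, scintillation counting; Ki via Cheng-Prusoff, reported as pKi; compounds tested 1 nM–1 µM.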

[3] = Pharmacokinetics in male Han Wistar rats, intravenous and oral; type: in vivo; settings: rat; for AUC(0-inf) / AUC(0-t) / clearance / Vd / half-life / Cmax / Tmax / bioavailability: male, Han Wistar, plasma; for clearance: read-out: CLp* (converted); for Vd: read-out: Vss*; for half-life: read-out: t½* (converted); for bioavailability: po
Description: Determination of PK of the Invention Compounds
The pharmacokinetics of compounds E10, E16, E34, E38, E51, were studied in male Han Wistar rats. The rats were treated intravenously and orally (n=3 for each dose route) with a compounds formulated as solutions. The rats were fitted with a jugular cannula for serial sampling. A full profile was acquired for each rat. Plasma extracts were quantitatively analyzed using a specific and sensitive LC-MS/MS bioanalytical method. Inter-individual variations between the three rats in each group were limited (CV for pharmacokinetic parameters was below 50%).

[4] = 2 mg/kg, PO, 2.0 mg/kg, read-out: F %
[5] = 1 mg/kg, PO, 1.0 mg/kg, read-out: F %

T1 sequence (P35408 whole entry): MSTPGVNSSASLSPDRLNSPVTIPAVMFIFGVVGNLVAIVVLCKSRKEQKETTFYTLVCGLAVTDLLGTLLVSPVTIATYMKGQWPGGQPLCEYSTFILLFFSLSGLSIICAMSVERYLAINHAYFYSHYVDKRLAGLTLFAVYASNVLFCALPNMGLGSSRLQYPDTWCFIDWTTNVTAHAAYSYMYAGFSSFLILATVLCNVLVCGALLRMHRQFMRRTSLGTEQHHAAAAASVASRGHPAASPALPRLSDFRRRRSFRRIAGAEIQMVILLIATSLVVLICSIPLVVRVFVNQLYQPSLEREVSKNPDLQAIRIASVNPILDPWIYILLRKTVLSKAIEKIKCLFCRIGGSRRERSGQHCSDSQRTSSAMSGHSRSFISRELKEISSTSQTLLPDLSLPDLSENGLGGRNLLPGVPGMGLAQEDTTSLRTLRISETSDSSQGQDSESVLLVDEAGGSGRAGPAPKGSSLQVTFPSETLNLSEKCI

SMILES | IC50 (human EP4 receptor [1]) | Ki (human EP4 receptor [2]) | AUC(0-inf) ([3]; IV, 2.0 mg/kg) | AUC(0-t) ([3]; IV, 2.0 mg/kg) | clearance ([3]; IV, 2.0 mg/kg) | Vd ([3]; IV, 2.0 mg/kg) | half-life ([3]; IV, 2.0 mg/kg) | AUC(0-inf) ([3]; IV, 1.0 mg/kg) | AUC(0-t) ([3]; IV, 1.0 mg/kg) | clearance ([3]; IV, 1.0 mg/kg) | Vd ([3]; IV, 1.0 mg/kg) | half-life ([3]; IV, 1.0 mg/kg) | AUC(0-inf) ([3]; PO, 1.0 mg/kg) | AUC(0-t) ([3]; PO, 1.0 mg/kg) | Cmax ([3]; PO, 1.0 mg/kg) | Tmax ([3]; PO, 1.0 mg/kg) | half-life ([3]; PO, 1.0 mg/kg) | bioavailability [3, 5] | Tlast ([3]; IV, 1.0 mg/kg) | Tlast ([3]; PO, 1.0 mg/kg) | further results
O=C(O)c1ccc(C2(NC(=O)c3cc(Cl)cnc3N3CC(Oc4cccc(F)c4)C3)CC2)cc1 [E 16, 4-(1-(5-chloro-2-(3-(3-fluorophenoxy)azetidin-1-yl)nicotinamido)cyclopropyl)benzoic acid] | 40 nM | 3.16 nM | 3330 ng·h/mL | 3290 ng·h/mL | 2.67 mL/min | 0.394 L | 5.62 h |  |  |  |  |  |  |  |  |  |  |  |  |  | AUC(0-inf) ([3]; PO, 2.0 mg/kg): 3000 ng·h/mL; AUC(0-t) ([3]; PO, 2.0 mg/kg): 2990 ng·h/mL; Cmax ([3]; PO, 2.0 mg/kg): 1800 ng/mL; Tmax ([3]; PO, 2.0 mg/kg): 0.25 h; half-life ([3]; PO, 2.0 mg/kg): 3.12 h; bioavailability [3, 4]: 91%; bioavailability ([3]; 2 mg/kg, after oral administration, read-out: absolute oral bioavailability F): 90%; Tlast ([3]; IV, 2.0 mg/kg): 24 h; Tlast ([3]; PO, 2.0 mg/kg): 24 h
O=C(O)c1ccc(C2(NC(=O)c3cc(Cl)cnc3N3CC(Oc4ccccc4)C3)CC2)cc1 [E 10, 4-(1-(5-chloro-2-(3-phenoxyazetidin-1-yl)nicotinamido)cyclopropyl)benzoic acid] | 46 nM | 15.8 nM | 3150 ng·h/mL | 3090 ng·h/mL | 2.68 mL/min | 0.307 L | 3.96 h |  |  |  |  |  |  |  |  |  |  |  |  |  | AUC(0-inf) ([3]; PO, 2.0 mg/kg): 1820 ng·h/mL; AUC(0-t) ([3]; PO, 2.0 mg/kg): 1720 ng·h/mL; Cmax ([3]; PO, 2.0 mg/kg): 923 ng/mL; Tmax ([3]; PO, 2.0 mg/kg): 0.25 h; half-life ([3]; PO, 2.0 mg/kg): 4.85 h; bioavailability [3, 4]: 56%; Tlast ([3]; IV, 2.0 mg/kg): 24 h; Tlast ([3]; PO, 2.0 mg/kg): 24 h

Second part, led by results:

IC50 (human EP4 receptor [1]) | Ki (human EP4 receptor [2]) | AUC(0-inf) ([3]; IV, 2.0 mg/kg) | AUC(0-t) ([3]; IV, 2.0 mg/kg) | clearance ([3]; IV, 2.0 mg/kg) | Vd ([3]; IV, 2.0 mg/kg) | half-life ([3]; IV, 2.0 mg/kg) | AUC(0-inf) ([3]; IV, 1.0 mg/kg) | AUC(0-t) ([3]; IV, 1.0 mg/kg) | clearance ([3]; IV, 1.0 mg/kg) | Vd ([3]; IV, 1.0 mg/kg) | half-life ([3]; IV, 1.0 mg/kg) | AUC(0-inf) ([3]; PO, 1.0 mg/kg) | AUC(0-t) ([3]; PO, 1.0 mg/kg) | Cmax ([3]; PO, 1.0 mg/kg) | Tmax ([3]; PO, 1.0 mg/kg) | half-life ([3]; PO, 1.0 mg/kg) | bioavailability [3, 5] | Tlast ([3]; IV, 1.0 mg/kg) | Tlast ([3]; PO, 1.0 mg/kg) | SMILES | further results
19.3 nM | 12.6 nM |  |  |  |  |  | 832 ng·h/mL | 816 ng·h/mL | 5.68 mL/min | 1.07 L | 5.9 h | 598 ng·h/mL | 551 ng·h/mL | 374 ng/mL | 0.25 h | 2.59 h | 59% | 24 h | 6 h | O=C(O)c1ccc(C2(NC(=O)c3cc(C(F)(F)F)cnc3N3CC(Oc4cccc(F)c4)C3)CC2)cc1 [E 38, 4-(1-(2-(3-(3-fluorophenoxy)azetidin-1-yl)-5-(trifluoromethyl)nicotinamido)cyclopropyl)benzoic acid] | 
28 nM | 6.31 nM |  |  |  |  |  | 389 ng·h/mL | 385 ng·h/mL | 11.2 mL/min | 0.447 L | 1.12 h | 231 ng·h/mL | 225 ng·h/mL | 151 ng/mL | 0.25 h | 1.14 h | 58% | 6 h | 6 h | Cc1cc(F)ccc1NC1CN(c2ncc(C(F)(F)F)cc2C(=O)NC2(c3ccc(C(=O)O)cc3)CC2)C1 [E 51, 4-(1-(2-(3-((4-fluoro-2-methylphenyl)amino)azetidin-1-yl)-5-(trifluoromethyl)nicotinamido)cyclopropyl)benzoic acid] | 
43 nM | 3.16 nM |  |  |  |  |  | 302 ng·h/mL | 300 ng·h/mL | 14.4 mL/min | 0.227 L | 0.34 h | 128 ng·h/mL | 125 ng·h/mL | 98.1 ng/mL | 0.25 h | 1.16 h | 42% | 2 h | 6 h | Cc1cc(F)ccc1NC1CN(c2ncc(Cl)cc2C(=O)NC2(c3ccc(C(=O)O)cc3)CC2)C1 [E 34, 4-(1-(5-chloro-2-(3-((4-fluoro-2-methylphenyl)amino)azetidin-1-yl)nicotinamido)cyclopropyl)benzoic acid] | 
